According to US10450318B2, “CXCR4 receptor antagonists” (BRISTOL-MYERS SQUIBB COMPANY, priority 2015, dated 2019):

target: T1, CXCR4 receptors (Homo sapiens, UniProt P61073); assay: CXCR4-CEM calcium flux assay, antagonist mode (inhibition of SDF-1α-induced calcium flux); type: cell-based; settings: inhibition of calcium flux induced by 4 nM SDF-1α in CCRF-CEM cells
T1 construct: expressing endogenous CXCR4 receptors; endogenous in cells; host or cells: CCRF-CEM (human T lymphoblast cells)
Summary of the method: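 CCRF-CEM cells were preincubated with compound (0.5% DMSO) for 25 min at room temperature, then stimulated with 4 nM SDF-1α. The resulting calcium flux was recorded by FDSS for 90 sec. Percent inhibition was calculated against an internal control compound, and background-corrected EC50 values were derived.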

T1 sequence (P61073 whole entry): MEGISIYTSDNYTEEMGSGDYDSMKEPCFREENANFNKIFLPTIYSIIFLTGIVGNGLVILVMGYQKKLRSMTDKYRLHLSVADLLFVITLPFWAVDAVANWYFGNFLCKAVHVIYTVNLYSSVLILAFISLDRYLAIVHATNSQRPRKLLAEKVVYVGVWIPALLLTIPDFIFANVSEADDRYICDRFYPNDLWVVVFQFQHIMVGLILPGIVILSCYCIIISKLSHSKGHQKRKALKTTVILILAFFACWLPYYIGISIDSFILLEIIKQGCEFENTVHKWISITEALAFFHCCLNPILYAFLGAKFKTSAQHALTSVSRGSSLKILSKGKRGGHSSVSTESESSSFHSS

| Molecule | IC50 [nM] |
| --- | --- |
| CN(Cc1cn2c(N3CCN[C@@H](CO)C3)nccc2n1)[C@H]1CCCc2cccnc21 [Example 85, ((R)-4-(2-((methyl((S)-5,6,7,8-tetrahydroquinolin-8-yl)amino)methyl)imidazo[1,2-c]pyrimidin-5-yl)piperazin-2-yl)methanol] | 1.7 |
| CN(Cc1cn2c(N3CCN[C@H](CO)C3)nccc2n1)[C@H]1CCCc2cccnc21 [Example 86, ((S)-4-(2-((methyl((S)-5,6,7,8-tetrahydroquinolin-8-yl)amino)methyl)imidazo[1,2-c]pyrimidin-5-yl)piperazin-2-yl)methanol] | 1.7 |
| CN(Cc1cn2c(N3CCN4C[C@@H](F)C[C@H]4C3)nccc2n1)[C@H]1CCCc2cccnc21 [Example 87, (S)-N-((5-((7S,8aS)-7-fluorohexahydropyrrolo[1,2-a]pyrazin-2(1H)-yl)imidazo[1,2-c]pyrimidin-2-yl)methyl)-N-methyl-5,6,7,8-tetrahydroquinolin-8-amine] | 200 |
| CN(Cc1cn2c(N3CC4CNC4C3)nccc2n1)[C@H]1CCCc2cccnc21 (stereo partly drawn) [Example 88, (8S)-N-((5-(3,6-diazabicyclo[3.2.0]heptan-3-yl)imidazo[1,2-c]pyrimidin-2-yl)methyl)-N-methyl-5,6,7,8-tetrahydroquinolin-8-amine] | 220 |
| CN(Cc1cn2c(N3CC4CNC4C3)nccc2n1)[C@H]1CCCc2cccnc21 (stereo partly drawn) [Example 89, (8S)-N-((5-(3,6-diazabicyclo[3.2.0]heptan-3-yl)imidazo[1,2-c]pyrimidin-2-yl)methyl)-N-methyl-5,6,7,8-tetrahydroquinolin-8-amine] | 280 |
| CN(Cc1cn2c(N3CCN4CCCCC4C3)nccc2n1)[C@H]1CCCc2cccnc21 (stereo partly drawn) [Example 90, (8S)-N-methyl-N-((5-(octahydro-2H-pyrido[1,2-a]pyrazin-2-yl)imidazo[1,2-c]pyrimidin-2-yl)methyl)-5,6,7,8-tetrahydroquinolin-8-amine] | 2.5 |
| CN(Cc1cn2c(N3CC4CCNC4C3)nccc2n1)[C@H]1CCCc2cccnc21 (stereo partly drawn) [Example 93, (8S)-N-((5-(hexahydropyrrolo[3,4-b]pyrrol-5(1H)-yl)imidazo[1,2-c]pyrimidin-2-yl)methyl)-N-methyl-5,6,7,8-tetrahydroquinolin-8-amine] | 27 |
| CN(Cc1cn2c(N3CC4CCNC4C3)nccc2n1)[C@H]1CCCc2cccnc21 (stereo partly drawn) [Example 94, (8S)-N-((5-(hexahydropyrrolo[3,4-b]pyrrol-5(1H)-yl)imidazo[1,2-c]pyrimidin-2-yl)methyl)-N-methyl-5,6,7,8-tetrahydroquinolin-8-amine] | 65 |
| C[C@@H]1CN(c2nccc3nc(CN(C)[C@H]4CCCc5cccnc54)cn23)C[C@H](C)N1C [Example 97, (S)—N-Methyl-N-((5-((3S,5R)-3,4,5-trimethylpiperazin-1-yl)imidazo[1,2-c]pyrimidin-2-yl)methyl)-5,6,7,8-tetrahydroquinolin-8-amine] | 480 |
| CN1CCN(c2nccc3nc(CN(C)[C@H]4CCCc5cccnc54)cn23)C[C@@H]1CO [Example 98, ((R)-1-methyl-4-(2-((methyl((S)-5,6,7,8-tetrahydroquinolin-8-yl)amino)methyl)imidazo[1,2-c]pyrimidin-5-yl)piperazin-2-yl)methanol] | 1.9 |
| CN1CCN(c2nccc3nc(CN(C)[C@H]4CCCc5cccnc54)cn23)C[C@H]1CO [Example 99, ((S)-1-methyl-4-(2-((methyl((S)-5,6,7,8-tetrahydroquinolin-8-yl)amino)methyl)imidazo[1,2-c]pyrimidin-5-yl)piperazin-2-yl)methanol] | 27 |
| CN1CCC2CN(c3nccc4nc(CN(C)[C@H]5CCCc6cccnc65)cn34)CC21 (stereo partly drawn) [Example 100, (8S)-N-methyl-N-((5-(1-methylhexahydropyrrolo[3,4-b]pyrrol-5(1H)-yl)imidazo[1,2-c]pyrimidin-2-yl)methyl)-5,6,7,8-tetrahydroquinolin-8-amine] | 210 |
| CN1CCC2CN(c3nccc4nc(CN(C)[C@H]5CCCc6cccnc65)cn34)CC21 (stereo partly drawn) [Example 101, (8S)-N-methyl-N-((5-(1-methylhexahydropyrrolo[3,4-b]pyrrol-5(1H)-yl)imidazo[1,2-c]pyrimidin-2-yl)methyl)-5,6,7,8-tetrahydroquinolin-8-amine] | 220 |
| CN1CCCC2CN(c3nccc4nc(CN(C)[C@H]5CCCc6cccnc65)cn34)CC21 (stereo partly drawn) [Example 102, (8S)-N-methyl-N-((5-(1-methyloctahydro-6H-pyrrolo[3,4-b]pyridin-6-yl)imidazo[1,2-c]pyrimidin-2-yl)methyl)-5,6,7,8-tetrahydroquinolin-8-amine] | 210 |
| CN1CCCC2CN(c3nccc4nc(CN(C)[C@H]5CCCc6cccnc65)cn34)CC21 (stereo partly drawn) [Example 103, (8S)-N-methyl-N-((5-(1-methyloctahydro-6H-pyrrolo[3,4-b]pyridin-6-yl)imidazo[1,2-c]pyrimidin-2-yl)methyl)-5,6,7,8-tetrahydroquinolin-8-amine] | 260 |
| COc1cc2nc(CN(C)[C@H]3CCCc4cccnc43)cn2c(N2CCNCC2)n1 [Example 104, (S)—N-((7-methoxy-5-(piperazin-1-yl)imidazo[1,2-c]pyrimidin-2-yl)methyl)-N-methyl-5,6,7,8-tetrahydroquinolin-8-amine] | 190 |
| COc1cc2nc(CN(C)[C@H]3CCCc4cccnc43)cn2c(N2CCN(C)CC2)n1 [Example 105, (S)—N-((7-Methoxy-5-(4-methylpiperazin-1-yl)imidazo[1,2-c]pyrimidin-2-yl)methyl)-N-methyl-5,6,7,8-tetrahydroquinolin-8-amine] | 100 |
| COc1nc(N2CCN(C)CC2)n2cc(CN(C)[C@H]3CCCc4cccnc43)nc2c1CO [Example 106, (S)-(7-Methoxy-2-((methyl(5,6,7,8-tetrahydroquinolin-8-yl)amino)methyl)-5-(4-methylpiperazin-1-yl)imidazo[1,2-c]pyrimidin-8-yl)methanol] | 370 |
| NCCCCN(Cc1cn2c(O)nccc2n1)[C@H]1CCCc2cccnc21 [Example 107, (S)-2-(((4-Aminobutyl)(5,6,7,8-tetrahydroquinolin-8-yl)amino)methyl)imidazo[1,2-c]pyrimidin-5-ol] | 29 |
| CN(Cc1nc2ccnc(N3CCN4CCC[C@H]4C3)n2c1CO)[C@H]1CCCc2cccnc21 [Example 108, (5-((S)-Hexahydropyrrolo[1,2-a]pyrazin-2(1H)-yl)-2-((methyl((S)-5,6,7,8-tetrahydroquinolin-8-yl)amino)methyl)imidazo[1,2-c]pyrimidin-3-yl)methanol] | 2.1 |
| (8S)-N-((5-(3-(dimethylamino)pyrrolidin- 1-yl)imidazo[1,2-c]pyrimidin-2- yl)methyl)-N-methyl-5,6,7,8- tetrahydroquinolin-8-amine [Example 75] | 11 |
